Experiments:
human TLR7 = biological target: T1, human TLR7 (Homo sapiens, UniProt Q9NYK1); test: TLR7 inhibition reporter assay (HEK-Blue SEAP); type: cell-based; conditions: HEK-Blue cells overexpressing human TLR7, gardiquimod 7.5 μM, 22 hour incubation
T1 construct: host or cells: HEK-Blue cells
T1 sequence (Q9NYK1 27-1049): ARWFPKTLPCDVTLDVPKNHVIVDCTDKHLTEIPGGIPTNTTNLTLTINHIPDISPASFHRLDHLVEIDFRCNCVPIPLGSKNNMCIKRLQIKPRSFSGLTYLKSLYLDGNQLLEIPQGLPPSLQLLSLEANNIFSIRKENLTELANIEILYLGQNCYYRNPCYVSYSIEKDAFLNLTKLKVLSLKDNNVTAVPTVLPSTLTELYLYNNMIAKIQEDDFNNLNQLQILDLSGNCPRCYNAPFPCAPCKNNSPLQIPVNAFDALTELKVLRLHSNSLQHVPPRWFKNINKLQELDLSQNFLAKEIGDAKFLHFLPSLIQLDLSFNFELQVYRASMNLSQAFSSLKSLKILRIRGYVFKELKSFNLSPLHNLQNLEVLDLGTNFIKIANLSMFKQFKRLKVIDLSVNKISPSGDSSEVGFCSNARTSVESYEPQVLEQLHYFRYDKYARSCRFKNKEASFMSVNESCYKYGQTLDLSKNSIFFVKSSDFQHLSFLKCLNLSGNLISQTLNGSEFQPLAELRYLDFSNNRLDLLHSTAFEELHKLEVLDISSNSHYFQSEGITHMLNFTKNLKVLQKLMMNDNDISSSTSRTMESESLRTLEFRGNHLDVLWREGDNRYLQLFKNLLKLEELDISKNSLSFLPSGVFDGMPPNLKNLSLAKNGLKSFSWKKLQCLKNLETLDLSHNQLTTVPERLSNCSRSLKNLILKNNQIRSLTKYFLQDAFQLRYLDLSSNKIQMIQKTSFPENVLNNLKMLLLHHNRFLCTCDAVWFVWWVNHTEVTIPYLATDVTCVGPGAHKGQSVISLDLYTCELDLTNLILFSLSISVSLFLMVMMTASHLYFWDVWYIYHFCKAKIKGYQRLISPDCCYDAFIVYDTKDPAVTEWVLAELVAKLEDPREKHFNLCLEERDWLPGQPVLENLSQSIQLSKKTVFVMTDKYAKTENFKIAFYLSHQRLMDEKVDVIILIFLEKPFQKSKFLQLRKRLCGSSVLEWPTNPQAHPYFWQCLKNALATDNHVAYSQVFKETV
Summary of the method: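 HEK-Blue reporter cells (15,000/well TLR7, 20,000 TLR8) exposed to compound over 0.05 nM–50 μM, agonist-stimulated (R848 for TLR8, gardiquimod for TLR7), 22 h at 37 °C, 5% CO2. SEAP read with HEK-Blue Detection; % inhibition relative to agonist-plus-DMSO and known-inhibitor controls.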

human TLR9 = biological target: T2, human TLR9 (Homo sapiens, UniProt Q9NR96); test: TLR9 inhibition reporter assay (HEK-Blue SEAP); type: cell-based; conditions: HEK-Blue cells overexpressing human TLR9, ODN2006 5 nM, 22 hour incubation
T2 construct: host or cells: HEK-Blue cells
T2 sequence (Q9NR96 26-1032): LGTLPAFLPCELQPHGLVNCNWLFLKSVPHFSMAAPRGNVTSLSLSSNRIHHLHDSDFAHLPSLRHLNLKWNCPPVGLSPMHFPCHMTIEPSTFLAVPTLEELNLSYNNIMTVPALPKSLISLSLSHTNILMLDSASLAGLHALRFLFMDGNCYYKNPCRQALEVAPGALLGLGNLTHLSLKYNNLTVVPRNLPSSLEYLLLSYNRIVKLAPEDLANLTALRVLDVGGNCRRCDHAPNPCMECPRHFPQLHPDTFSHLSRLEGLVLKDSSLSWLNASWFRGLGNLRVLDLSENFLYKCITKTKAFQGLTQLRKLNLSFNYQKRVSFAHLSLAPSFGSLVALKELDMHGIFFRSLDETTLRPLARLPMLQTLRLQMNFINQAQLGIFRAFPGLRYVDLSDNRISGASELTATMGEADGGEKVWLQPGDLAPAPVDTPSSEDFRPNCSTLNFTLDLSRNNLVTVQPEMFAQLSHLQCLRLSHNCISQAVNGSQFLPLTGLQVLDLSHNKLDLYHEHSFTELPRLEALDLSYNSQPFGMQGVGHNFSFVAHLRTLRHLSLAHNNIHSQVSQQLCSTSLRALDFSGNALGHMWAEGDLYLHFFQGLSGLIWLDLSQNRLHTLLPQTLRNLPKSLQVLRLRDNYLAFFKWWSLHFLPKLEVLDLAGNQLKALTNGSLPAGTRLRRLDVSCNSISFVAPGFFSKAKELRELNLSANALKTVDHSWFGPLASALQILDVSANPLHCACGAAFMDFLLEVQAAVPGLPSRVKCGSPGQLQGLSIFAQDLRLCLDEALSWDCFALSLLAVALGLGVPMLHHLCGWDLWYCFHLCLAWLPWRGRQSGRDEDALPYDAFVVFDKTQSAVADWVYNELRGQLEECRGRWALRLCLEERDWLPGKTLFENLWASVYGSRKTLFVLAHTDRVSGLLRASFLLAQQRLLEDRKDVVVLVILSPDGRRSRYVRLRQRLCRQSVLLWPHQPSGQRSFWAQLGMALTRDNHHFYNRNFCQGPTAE
Summary of the method: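 Agonists used: gardiquimod 7.5 μM (TLR7), R848 15.9 μM (TLR8), ODN2006 5 nM (TLR9), added after 30 min room-temperature compound pre-treatment (0.05 nM–50 μM) of receptor-overexpressing HEK-Blue cells. SEAP reporter (NF-κB/AP-1 driven) read after 22 h at 37 °C; inhibition scaled between agonist+DMSO and reference-inhibitor wells.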

SMILES	IC50 (human TLR7) [µM]	IC50 (human TLR9) [µM]
COc1cc(-c2cc3[nH]c(=O)n(C4CCN(CC(C)C)CC4)c3cc2C(C)C)cn2ncnc12 [Example 164, 1-(1-isobutylpiperidin-4-yl)-6-isopropyl-5-(8-methoxy-[1,2,4]triazolo[1,5-a]pyridin-6-yl)-1,3-dihydro-2H-benzo[d]imidazol-2-one]	0.0123	17.2
CCC(CC)CN1CCC(n2c(=O)[nH]c3cc(-c4cc(OC)c5ncnn5c4)c(C(C)C)cc32)CC1 [Example 165, 1-(1-(2-ethylbutyl)piperidin-4-yl)-6-isopropyl-5-(8-methoxy-[1,2,4]triazolo[1,5-a]pyridin-6-yl)-1,3-dihydro-2H-benzo[d]imidazol-2-one]	0.0109	8.72
CCc1cc2c(cc1-c1cc(OC)c3ncnn3c1)[nH]c(=O)n2[C@H]1CC[C@@H](NC2CCOCC2)CC1 [Example 166, 6-ethyl-5-(8-methoxy-[1,2,4]triazolo[1,5-a]pyridin-6-yl)-1-((1s,4s)-4-((tetrahydro-2H-pyran-4-yl)amino)cyclohexyl)-1,3-dihydro-2H-benzo[d]imidazol-2-one]	0.0019	14.9
CCc1cc2c(cc1-c1cc(OC)c3ncnn3c1)[nH]c(=O)n2[C@H]1CC[C@@H](NC(C)C)CC1 [Example 167, 6-ethyl-1-((1s,4s)-4-(isopropylamino)cyclohexyl)-5-(8-methoxy-[1,2,4]triazolo[1,5-a]pyridin-6-yl)-1,3-dihydro-2H-benzo[d]imidazol-2-one]	0.00308	16.6
CCCN(CCC)[C@H]1CC[C@@H](n2c(=O)[nH]c3cc(-c4cc(OC)c5ncnn5c4)c(CC)cc32)CC1 [Example 168, 1-((1s,4s)-4-(dipropylamino)cyclohexyl)-6-ethyl-5-(8-methoxy-[1,2,4]triazolo[1,5-a]pyridin-6-yl)-1,3-dihydro-2H-benzo[d]imidazol-2-one]	0.00545	15.2

— patent publication US12187723B2 (BRISTOL-MYERS SQUIBB COMPANY, priority 2019, dated 2025)
